Data set [1] in a line: Drug saturation solubility studies. It counts as physicochemical. As to conditions: for solubility: 21 °C, thermodynamic from solid. As to the method: The saturation concentration of each drug in various solvents and/or solvent combinations was determined. Drugs were then formulated in ISFI formulations containing 1:1, 1:1.5, 1:2, or 1:4 w/w ratios of PLGA/solvent, as exemplary starting points. For example, for DTG, 25 mg of DTG was added to individual vials containing 100 mg of solvent or PLGA/N-MP placebo ISFI solution. The mixture was mixed thoroughly using a vortex with short-warming for several cycles, and stirred at room temperature (RT), e.g. about 20-22° C., for about 24-48 h. Samples were subsequently centrifuged for 30 min at 13,000 rpm (Eppendorf Centrifuge 5417C, USA) to remove excess undissolved drug. Sample aliquots (1 mg, n=4) were collected from the saturated supernatant and diluted with acetonitrile (ACN). Drug concentration in the saturated aliquots was determined by HPLC analysis.
A reverse-phase HPLC analysis was carried out with a Finnigan Surveyor HPLC system (Thermo Finnigan, San Jose, California, USA) with a Photodiode Array (PDA) Plus Detector, auto-sampler, and LC Pump Plus. The stationary phase utilized for the analysis was a Inertsil ODS-3 column (4 μm, 4.6 Å˜150 mm, [GL Sciences, Torrance, CA]) maintained at 40° C. Chromatographic separation was achieved by gradient elution using a mobile phase consisting of 0.1% trifluoroacetic acid in water and ACN (H2O/ACN 95:5 v/v). The flow rate was 1.0 mL/min and the total run time was 25 min for each 25 μL injection.

A short description of data set [2]: CAB MPT ISFI in vitro release studies. As to conditions: for in vitro release as single-drug ISFI versus co-formulated: CAB with either hormone, MPA or ENG with CAB (ENG up to 60 days). It is filed as physicochemical. On the procedure:
Drug release kinetics from various implant formulations was evaluated by incubating solid implants (25 mg±5 mg) into 200 mL of release medium under sink conditions (0.01 M PBS pH 7.4 with 2% solutol HS) at 37° C. for up to 6 months. Sample aliquots (1 mL) were collected at various time points and replaced with fresh release medium. The release medium was completely removed and replaced with fresh medium every week to maintain sink conditions. Drug concentration in the release samples was quantified by HPLC using the method described above. Cumulative drug release was calculated from the HPLC analysis and normalized to the total mass of drug in the implant. All experiments were performed in quadruplicate.
In vitro release of single-drug ISFIs vs. MPT ISFIs were evaluated to assess drug-drug interactions. All ISFI liquid suspensions were stable and homogenous, elicited <15% burst release, sustained release for 90 days, and above target release rates.

Data set [3] is described as follows: In vivo pharmacokinetics of MPT ISFI formulations. Details: species or system mice. As to the method:
FIGS. 18A to 18E. Drug concentrations in plasma of MPT ISFI formulations. Plasma concentrations of (FIG. 18A) DTG (278 mg/kg, 50 μL injection) when co-formulated with MPA or ENG (n=6-12/timepoint per group), (FIG. 18B) CAB (1215 mg/kg, 50 μL injection) when co-formulated with MPA or ENG (n=6-12/timepoint per group), (FIG. 18C) MPA (70-76 mg/kg, 50 μL injection) when co-formulated with DTG or CAB (n=6-12/timepoint per group), and (FIG. 18D) ENG (70-151 mg/kg, 50 μL injection) when co-formulated with DTG or CAB (n=6-12/timepoint per group). […] (FIG. 18E) R^2 values for mathematical models of zero-order, first-order, and diffusion-controlled (Higuchi) release.
Pharmacokinetic (PK) studies were carried out in mice over 90 days to assess in vivo drug release of MPT ISFI formulations. DTG, CAB, ENG, and MPA plasma concentrations were quantified using a high-performance liquid chromatography-tandem mass spectrometry LC/MS-MS method and were plotted over 90 days (FIG. 18).
Moreover, the release kinetics of DTG, CAB, MPA, and ENG were assessed against three mathematical models (zero-order, first-order, and diffusion-controlled (Higuchi) (Gouda, Baishya et al. 2017)).

Data set [4] can be described thus: Preparation and optimization of drug suspension formulations. It is filed as physicochemical. To be noted: for depot formation when injected into aqueous release medium: PBS, pH 7.4, 37° C. On the procedure:
The polymer based drug suspensions were prepared by: (1) Placebo formulation: 50:50 Poly(DL-lactide-co-glycolide) (PLGA), MW 10 or 27 kDa, or Poly(lactic acid) (PLA) MW 10 kDa, was mixed with N-methyl-2-pyrrolidone (NMP) or a combination of NMP and DMSO (e.g. 1:1 v/v) at various weight ratios of PLGA/solvent (w/w) and allowed to dissolve by continuous mixing at room temperature (Placebo). […] (2) Drug loading: […] (3) Depot formation: A sample from the resulting drug-loaded suspension formulation (30 μL, 30±3 mg) was injected into 200 mL of 0.01 M PBS pH 7.4 using a pipette and incubated at 37° C. for 24 h to produce a spherical implant, as an example. […] Of importance, but without being limited to any particular theory or mechanism of action, is the ratio of the polymer:solvent:drug that achieves high drug loading in a stable polymeric suspension formulation and which is correlated to the drug's saturation solubility in the solvent system.

For data set [5] the following is noted: published CAB population PK model, mean parameter; cited from earlier work.
The test system of data set [6] is HIV. As to conditions: protein-adjusted, cited from earlier work; for 4×PA-IC90: benchmark for protection.
Data set [7] is described as follows: Suspension stability studies. It is filed as physicochemical. To be noted: polymer:solvent 1:2. On the procedure:
Eight (8) formulations were prepared and evaluated for stability. The formulations were placed in a water bath at 37° C. with shaking overnight and then vortexed for about 2 min upon removal. Sample aliquots (about 1 mg, n=4) were collected from each formulation and analyzed by HPLC to determine drug homogeneity distribution within the formulation. All suspension formulations were reevaluated for homogeneity after at least 24 h storage at room temperature (RT) to determine stability of suspensions at RT.

Data set [8] is described as follows: In vitro release of chemotherapeutic ISFIs. It is filed as physicochemical. On the procedure:
ISFI formulations were prepared with two different chemotherapeutic drugs, paclitaxel (PTX) and gemcitabine (Gem) and investigated for in vitro release kinetics (PTX and Gem ISFIs; FIGS. 21A-21C and 22A-22B) and for in vivo safety and pharmacokinetics (PTX ISFI; FIG. 23).

The mark [9] stands for this setting: DMSO, organic solvent or mixture, solvent DMSO.
Where [10] appears, read: 167 mg/g in 6:1 w/w PLA (10 kDa):Pluronic L61, NMP.
Setting [11] is: 200 mg/g in 9:1 w/w PLA (10 kDa):Pluronic L61, NMP.

For orientation: solubility means the dissolved amount per volume that the medium holds.

Counter-ions that a name gives are not always drawn. A value given as a limit tells only on which side of the number the result lay.

As to `CC(=O)O[C@]1(C(C)=O)CC[C@H]2[C@@H]3C[C@H](C)C4=CC(=O)CC[C@]4(C)[C@H]3CC[C@@]21C` [MPA, medroxyprogesterone acetate], the solubility in data set [1] (organic solvent or mixture, solvent NMP:DMSO (1:1 w/w)) came to 33.6 ± 0.9 mg/mL. Besides, the “in vitro release as single-drug ISFI versus co-formulated” value in data set [2] is given as “difference (p<0.05)”. For the same molecule, the “best-fit model of in vivo release” value in data set [3] (MPT ISFIs, 90-day PK) is listed as “zero-order release model”. Further, the “plasma concentrations over the study” value in data set [3] (in MPT ISFIs, 90-day study) is recorded as “maintained during the 90-day study”.

For the molecule `C[C@H]1CO[C@@H]2Cn3cc(C(=O)NCc4ccc(F)cc4F)c(=O)c(O)c3C(=O)N12` [CAB, Cabotegravir], the “suspension formation when loaded above saturation concentration in PLGA/solvent placebo” value (“suspension formation … in PLGA/solvent placebo” for short) in data set [4] is recorded as “formed stable syringeable formulations”. In addition, the “depot formation when injected into aqueous release medium” value (shortened to “depot formation”) in data set [4] is “formation of stable depots”. Besides, the solubility turned out to be 107 ± 3.05 mg/mL in data set [1] ((NMP:DMSO 1:1 w/w):Tween 20 (9:1 w/w), organic solvent or mixture, solvent (NMP:DMSO 1:1 w/w):Tween 20 (9:1 w/w)); 38 mg/mL in data set [1] (setting [9]); 52.2 ± 6.39 mg/mL in data set [1] (NMP:DMSO (2:8 w/w), organic solvent or mixture, solvent NMP:DMSO (2:8 w/w)); 144 ± 1.99 mg/mL in data set [1] (NMP:DMSO (9:1 w/w), organic solvent or mixture, solvent NMP:DMSO (9:1 w/w)); 134 ± 3.81 mg/mL in data set [1] (NMP:Gelucire 44/14 (9:1 w/w), organic solvent or mixture, solvent NMP:Gelucire 44/14 (9:1 w/w)); 89.6 ± 5.49 mg/mL in data set [1] (NMP:HP-b-CD (6:4 w/w), organic solvent or mixture, solvent NMP:HP-b-CD (6:4 w/w)). The solubility in data set [1] (NMP:HP-b-CD (9:1 w/w), organic solvent or mixture, solvent NMP:HP-b-CD (9:1 w/w)) amounted to 158.2 ± 1.12 mg/mL; in data set [1] (NMP:b-CD (6:4 w/w), organic solvent or mixture, solvent NMP:b-CD (6:4 w/w)), 81.8 ± 2.35 mg/mL; in data set [1] (PBS, aqueous buffer, solvent PBS) it was 0.014 ± 0.001 mg/mL. Moreover, the “Saturation Solubility” value in data set [1] (solvent DMSO) turned out to be 38.0 mg/mL; in data set [1] (solvent NMP), 131.7 ± 3.66 mg/mL; in data set [1] (solvent NMP:DMSO (1:1 w/w)), 167.12 ± 12.04 mg/mL; in data set [1] (solvent PBS + 2% Solutol), 0.06 ± 0.002 mg/mL. For the same molecule, the “in vitro release as single-drug ISFI versus co-formulated” value in data set [2] is given as “comparable (p>0.05)”. In addition, the CL in data set [5] was 151 mL/h. Also, in data set [5], the Q was 507 mL/h. In data set [5], the V2 is 5270 mL. In addition, in data set [5], the V3 is listed as 2430 mL. In data set [3] (mouse, in vivo), the “plasma concentrations when co-formulated with either hormone (MPA or ENG)” value is recorded as “no difference (p>0.05)”. Moreover, the “4×PA-IC90” value in data set [6] is 0.664 µg/mL. Besides, the “1×PA-IC90” value in data set [6] was 0.166 µg/mL.

With `C[C@@H]1CCO[C@H]2Cn3cc(C(=O)NCc4ccc(F)cc4F)c(=O)c(O)c3C(=O)N12` [DTG, Dolutegravir], in data set [4], the “suspension formation … in PLGA/solvent placebo” value is given as “formed stable syringeable formulations” and the “depot formation” value is given as “formation of stable depots”. The solubility in data set [1] (setting [9]) worked out at 55 ± 4.5 mg/mL. Moreover, in data set [1] (NMP, organic solvent or mixture, solvent NMP), the solubility turned out to be 269 ± 7.25 mg/mL. Besides, the solubility in data set [1] (NMP:DMSO (1:1 w/w), organic solvent or mixture, solvent NMP:DMSO (1:1 w/w)) is 229.3 ± 1.6 mg/mL. Further, the “Saturation Solubility” value in data set [1] (solvent PBS + 2% Solutol) was determined as 0.56 ± 0.004 mg/mL. The “plasma concentrations when co-formulated with either hormone (MPA or ENG)” value in data set [3] (mouse, in vivo) is on record as “no difference (p>0.05)”. In data set [6], the “4×PA-IC90” value was 0.256 µg/mL and the “1×PA-IC90” value is 0.064 µg/mL.

For the molecule `C#C[C@]1(CO)O[C@@H](n2cnc3c(N)nc(F)nc32)C[C@@H]1O` [EFdA, Islatravir], in data set [4], the “suspension formation … in PLGA/solvent placebo” value is reported as “did not form successful suspensions” and the “depot formation” value is given as “did not form a stable spherical depot”. In addition, in data set [7] (setting [10]), the “24 h-Burst” value came out at 64% and the “Depot Forming” value is on record as “YES”. Besides, in data set [7] (setting [11]), the “24 h-Burst” value came out at 58% and the “Depot Forming” value is given as “YES”.

For `Nc1ccn([C@@H]2O[C@H](CO)[C@@H](O)C2(F)F)c(=O)n1` [Gem, gemcitabine], in data set [8], the “in vitro release from ISFI” value is “exhibited sustained release in vitro”.

On to `C#C[C@]1(O)CC[C@H]2[C@@H]3CCC4=CC(=O)CC[C@@H]4[C@H]3C(=C)C[C@@]21CC` [ENG, entonogestrel], for which the “in vitro release as single-drug ISFI versus co-formulated” value in data set [2] is “no difference (p>0.05)”. Moreover, the “in vitro release as single-drug ISFI versus co-formulated with CAB” value in data set [2] (beyond 60 days) was “significantly different (p<0.05)”. The “plasma concentrations over the study” value in data set [3] (mouse, in vivo) was “maintained during the 90-day study”.

As for `CC(=O)O[C@H]1C(=O)[C@@]2(C)[C@H]([C@H](OC(=O)c3ccccc3)[C@]3(O)C[C@H](OC(=O)[C@H](O)[C@@H](NC(=O)c4ccccc4)c4ccccc4)C(C)=C1C3(C)C)[C@]1(OC(C)=O)CO[C@@H]1C[C@@H]2O` [PTX, paclitaxel], the “in vitro release from ISFI” value in data set [8] is “exhibited sustained release in vitro”. In addition, in data set [8] (ISFI), the “burst release in 24 h” value was under 2% and the sustained release duration was over 60 days.

As for `C[C@H]1CO[C@@H]2Cn3cc(C(=O)NCc4ccc(F)cc4F)c(=O)c(O)c3C(=O)N12` [CAB—Na salt, Cabotegravir sodium], the “Saturation Solubility” value is on record as 31.6 ± 0.96 mg/mL in data set [1] (solvent DMSO), 47.5 ± 1.72 mg/mL in data set [1] (solvent NMP), 49.1 ± 1.2 mg/mL in data set [1] (solvent NMP:DMSO (1:1 w/w)) and 1.83 ± 0.7 mg/mL in data set [1] (solvent PBS + 2% Solutol).

For `Nc1ccn([C@@H]2CS[C@H](CO)O2)c(=O)n1` [3TC, lamuvidine], the “suspension formation … in PLGA/solvent placebo” value in data set [4] is reported as “did not form successful suspensions”.
